Laboratory results: patent US20130165450A1, “Novel Thiazol-Carboximide Derivatives as PDK1 Inhibitors” (priority 2010, published 2013)

Molecular target: T1, recombinant human PDK1 (amino acids 51-556) (Homo sapiens, UniProt O15530)
T1 construct: containing amino acids 51-556 of the human PDK1 enzyme; made in house
T1 sequence (O15530 51-556): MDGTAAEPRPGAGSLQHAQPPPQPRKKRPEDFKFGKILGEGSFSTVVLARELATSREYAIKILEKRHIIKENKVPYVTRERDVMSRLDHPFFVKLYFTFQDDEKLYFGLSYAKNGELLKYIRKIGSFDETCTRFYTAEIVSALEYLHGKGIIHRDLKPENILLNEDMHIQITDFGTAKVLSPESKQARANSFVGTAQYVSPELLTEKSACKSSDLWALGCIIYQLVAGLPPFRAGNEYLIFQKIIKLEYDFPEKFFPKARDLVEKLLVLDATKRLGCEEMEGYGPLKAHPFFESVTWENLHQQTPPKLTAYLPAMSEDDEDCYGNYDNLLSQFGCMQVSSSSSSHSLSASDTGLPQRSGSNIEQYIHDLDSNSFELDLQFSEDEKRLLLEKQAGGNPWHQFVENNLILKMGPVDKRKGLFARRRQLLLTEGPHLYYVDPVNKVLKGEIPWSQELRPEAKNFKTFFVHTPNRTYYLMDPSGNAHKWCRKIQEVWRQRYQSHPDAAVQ
Test: PDK1 IMAP fluorescence polarization kinase assay
Assay type: biochemical
Details: 10 nM PDK1, 100 nM peptide substrate, 100 nM PIFtide, 2.5 uM ATP, 1.5 hours

Which IC50 (numeric values) does the source give for Nc1ccc(N2CCC[C@@H](N)C2)c(NC(=O)c2csc(-c3cnn(Cc4cccs4)c3)n2)c1 [Compound 1, N-[5-amino-2-(3(R)-amino-1-piperidinyl)phenyl]-2-[1-(2-thienylmethyl)-1H-pyrazol-4-yl]-4-thiazolecarboxamide] here?
The IC50 was 7 nM.

For CN(C)CCCn1cc(-c2nc(C(=O)Nc3cc(N)ccc3N3CCC[C@@H](N)C3)cs2)cn1 [Compound 2, N-[5-amino-2-(3(R)-amino-1-piperidinyl)phenyl]-2-[1-[3-(dimethylamino)propyl]-1H-pyrazol-4-yl]-4-thiazolecarboxamide], which IC50 (rated A-D) is on record?
The IC50 was 251 to 1000 nM.

Nc1ccc(N2CCC[C@@H](N)C2)c(NC(=O)c2csc(-c3cnn(Cc4ccccc4)c3)n2)c1 [Compound 3, N-[5-amino-2-(3(R)-amino-1-piperidinyl)phenyl]-2-[1-(phenylmethyl)-1H-pyrazol-4-yl]-4-thiazolecarboxamide] was tested. Which IC50 (rated A-D) did it give?
Its IC50 is 1 to 50 nM.

How did the IC50 (rated A-D) turn out when Nc1ccc(N2CCC[C@@H](N)C2)c(NC(=O)c2csc(-c3cnn(CCN4CCOCC4)c3)n2)c1 [Compound 4, N-[5-amino-2-(3(R)-amino-1-piperidinyl)phenyl]-2-[1-[2-(4-morpholinyl)ethyl]-1H-pyrazol-4-yl]-4-thiazolecarboxamide] was run?
Its IC50 is 251 to 1000 nM.

How did the IC50 (numeric values) turn out when CNC1(C(N)=O)CCN(c2ccc(N)cc2NC(=O)c2csc(-c3cnn(Cc4cccs4)c3)n2)CC1 [Compound 5, 1-[4-amino-2-[[[2-[1-(2-thienylmethyl)-1H-pyrazol-4-yl]-4-thiazolyl]carbonyl]amino]phenyl]-4-(methylamino)-4-piperidinecarboxamide] was run?
The IC50 was 81 nM.

With NCC1CCN(c2c(F)cccc2NC(=O)c2csc(-c3cnn(Cc4cccs4)c3)n2)CC1 [Compound 6, N-[2-[4-(aminomethyl)-1-piperidinyl]-3-fluorophenyl]-2-[1-(2-thienylmethyl)-1H-pyrazol-4-yl]-4-thiazolecarboxamide] as the compound, how does the IC50 (rated A-D) read?
Its IC50 is 51 to 250 nM.

With Nc1ccc(N2CCC3(CCCNC3)CC2)c(NC(=O)c2csc(-c3cnn(Cc4cccs4)c3)n2)c1 [Compound 7, N-[5-amino-2-(2,9-diazaspiro[5.5]undec-9-yl)phenyl]-2-[1-(2-thienylmethyl)-1H-pyrazol-4-yl]-4-thiazolecarboxamide] as the compound, how does the IC50 (numeric values) read?
The IC50 was 60 nM.

Which IC50 (rated A-D) does the source give for NCC1CCN(c2ccc(N)cc2NC(=O)c2csc(-c3cnn(Cc4cccs4)c3)n2)CC1 [Compound 8, N-[5-amino-2-[4-(aminomethyl)-1-piperidinyl]phenyl]-2-[1-(2-thienylmethyl)-1H-pyrazol-4-yl]-4-thiazolecarboxamide] here?
Its IC50 is 1 to 50 nM.

For Nc1ccc(N2CCC[C@@H](N)C2)c(NC(=O)c2csc(-c3cnn(Cc4ccncc4)c3)n2)c1 [Compound 9, N-[5-amino-2-(3(R)-amino-1-piperidinyl)phenyl]-2-[1-(4-pyridinylmethyl)-1H-pyrazol-4-yl]-4-thiazolecarboxamide], which IC50 (rated A-D) is on record?
Its IC50 is 51 to 250 nM.

How did the IC50 (rated A-D) turn out when Nc1ccc(N2CC[C@@H](N)C2)c(NC(=O)c2csc(-c3cnn(Cc4cccs4)c3)n2)c1 [Compound 10, N-[5-amino-2-(3(R)-amino-1-pyrrolidinyl)phenyl]-2-[1-(2-thienylmethyl)-1H-pyrazol-4-yl]-4-thiazolecarboxamide] was run?
Its IC50 is 1 to 50 nM.

Which IC50 (rated A-D) does the source give for CCOC(=O)C1CCCN(c2ccc(N)cc2NC(=O)c2csc(-c3cnn(Cc4cccs4)c3)n2)C1 (centres unmarked) [Compound 11, ethyl 1-[4-amino-2-[[[2-[1-(2-thienylmethyl)-1H-pyrazol-4-yl]-4-thiazolyl]carbonyl]amino]phenyl]-3-piperidinecarboxylate] here?
Its IC50 is over 1000 nM.

For CCOC(=O)C1CCN(c2ccc(N)cc2NC(=O)c2csc(-c3cnn(Cc4cccs4)c3)n2)CC1 [Compound 12, ethyl 1-[4-amino-2-[[[2-[1-(2-thienylmethyl)-1H-pyrazol-4-yl]-4-thiazolyl]carbonyl]amino]phenyl]-4-piperidinecarboxylate], which IC50 (rated A-D) is on record?
The IC50 was 251 to 1000 nM.

With Nc1ccc(N2CCC[C@@H](N)C2)c(NC(=O)c2csc(-c3cnn(Cc4ccccn4)c3)n2)c1 [Compound 13, N-[5-amino-2-(3(R)-amino-1-piperidinyl)phenyl]-2-[1-(2-pyridinylmethyl)-1H-pyrazol-4-yl]-4-thiazolecarboxamide] as the compound, how does the IC50 (rated A-D) read?
Its IC50 is 1 to 50 nM.

Which IC50 (rated A-D) does the source give for Nc1ccc(N2CCC[C@@H](N)C2)c(NC(=O)c2csc(-c3cnn(Cc4ccc(F)c(F)c4)c3)n2)c1 [Compound 14, N-[5-amino-2-(3(R)-amino-1-piperidinyl)phenyl]-2-[1-[(3,4-difluorophenyl)methyl]-1H-pyrazol-4-yl]-4-thiazolecarboxamide] here?
The IC50 was 1 to 50 nM.

Which IC50 (rated A-D) does the source give for Nc1ccc(N2CCC3(CC2)OCCO3)c(NC(=O)c2csc(-c3cnn(Cc4cccc(F)c4)c3)n2)c1 [Compound 15, N-[5-amino-2-(1,4-dioxa-8-azaspiro[4.5]dec-8-yl)phenyl]-2-[1-[(3-fluorophenyl)methyl]-1H-pyrazol-4-yl]-4-thiazolecarboxamide] here?
Its IC50 is 1 to 50 nM.

For Nc1ccc(N2CCC[C@@H](N)C2)c(NC(=O)c2csc(-c3cnn(Cc4cc(F)cc(F)c4)c3)n2)c1 [Compound 16, N-[5-amino-2-(3(R)-amino-1-piperidinyl)phenyl]-2-[1-[(3,5-difluorophenyl)methyl]-1H-pyrazol-4-yl]-4-thiazolecarboxamide], which IC50 (rated A-D) is on record?
The IC50 was 1 to 50 nM.

With Nc1ccc(N2CCC[C@@H](N)C2)c(NC(=O)c2csc(-c3cnn(CCc4ccccc4)c3)n2)c1 [Compound 17, N-[5-amino-2-(3(R)-amino-1-piperidinyl)phenyl]-2-[1-(2-phenylethyl)-1H-pyrazol-4-yl]-4-thiazolecarboxamide] as the compound, how does the IC50 (rated A-D) read?
The IC50 was 1 to 50 nM.

For Nc1ccc(N2CCC[C@@H](N)C2)c(NC(=O)c2csc(-c3cnn(Cc4cccnc4)c3)n2)c1 [Compound 18, N-[5-amino-2-(3(R)-amino-1-piperidinyl)phenyl]-2-[1-(3-pyridinylmethyl)-1H-pyrazol-4-yl]-4-thiazolecarboxamide], which IC50 (rated A-D) is on record?
The IC50 was 1 to 50 nM.

With Nc1ccc(N2CCC[C@@H](N)C2)c(NC(=O)c2csc(-c3cnn(Cc4cccc(F)c4)c3)n2)c1 [Compound 19, N-[5-amino-2-(3(R)-amino-1-piperidinyl)phenyl]-2-[1-[(3-fluorophenyl)methyl]-1H-pyrazol-4-yl]-4-thiazolecarboxamide] as the compound, how does the IC50 (rated A-D) read?
The IC50 was 1 to 50 nM.

For Nc1ccc(N2CCC3(CCCNC3)CC2)c(NC(=O)c2csc(-c3cnn(Cc4ccccn4)c3)n2)c1 [Compound 20, N-[5-amino-2-(2,9-diazaspiro[5.5]undec-9-yl)phenyl]-2-[1-(2-pyridinylmethyl)-1H-pyrazol-4-yl]-4-thiazolecarboxamide], which IC50 (rated A-D) is on record?
The IC50 was 51 to 250 nM.

How did the IC50 (rated A-D) turn out when Nc1ccc(N2CCC[C@@H](N)C2)c(NC(=O)c2csc(-c3cnn(Cc4ccccc4F)c3)n2)c1 [Compound 21, N-[5-amino-2-(3(R)-amino-1-piperidinyl)phenyl]-2-[1-[(2-fluorophenyl)methyl]-1H-pyrazol-4-yl]-4-thiazolecarboxamide] was run?
The IC50 was 1 to 50 nM.

For Nc1ccc(N2CCC[C@@H](N)C2)c(NC(=O)c2csc(-c3cnn(Cc4cc(F)ccc4F)c3)n2)c1 [Compound 22, N-[5-amino-2-(3(R)-amino-1-piperidinyl)phenyl]-2-[1-[(2,5-difluorophenyl)methyl]-1H-pyrazol-4-yl]-4-thiazolecarboxamide], which IC50 (rated A-D) is on record?
The IC50 was 1 to 50 nM.

With N[C@@H]1CCCN(c2c(F)cccc2NC(=O)c2csc(-c3cnn(Cc4cccs4)c3)n2)C1 [Compound 23, N-[2-(3(R)-amino-1-piperidinyl)-3-fluorophenyl]-2-[1-(2-thienylmethyl)-1H-pyrazol-4-yl]-4-thiazolecarboxamide] as the compound, how does the IC50 (rated A-D) read?
Its IC50 is 1 to 50 nM.

How did the IC50 (rated A-D) turn out when NCC1CCN(c2ccc(N)cc2NC(=O)c2csc(-c3cnn(Cc4ccccn4)c3)n2)CC1 [Compound 24, N-[5-amino-2-[4-(aminomethyl)-1-piperidinyl]phenyl]-2-[1-(2-pyridinylmethyl)-1H-pyrazol-4-yl]-4-thiazolecarboxamide] was run?
The IC50 was 51 to 250 nM.

For N[C@@H]1CCCN(c2c(F)cccc2NC(=O)c2csc(-c3cnn(Cc4ccccc4)c3)n2)C1 [Compound 25, N-[2-(3(R)-amino-1-piperidinyl)-3-fluorophenyl]-2-[1-(phenylmethyl)-1H-pyrazol-4-yl]-4-thiazolecarboxamide], which IC50 (rated A-D) is on record?
The IC50 was 51 to 250 nM.

How did the IC50 (rated A-D) turn out when COCCn1cc(-c2nc(C(=O)Nc3cc(N)ccc3N3CCC[C@@H](N)C3)cs2)cn1 [Compound 26, N-[5-amino-2-(3(R)-amino-1-piperidinyl)phenyl]-2-[1-(2-methoxyethyl)-1H-pyrazol-4-yl]-4-thiazolecarboxamide] was run?
The IC50 was 1 to 50 nM.

With N[C@@H]1CCCN(c2c(F)cccc2NC(=O)c2csc(-c3cnn(Cc4ccccn4)c3)n2)C1 [Compound 27, N-[2-(3(R)-amino-1-piperidinyl)-3-fluorophenyl]-2-[1-(2-pyridinylmethyl)-1H-pyrazol-4-yl]-4-thiazolecarboxamide] as the compound, how does the IC50 (rated A-D) read?
Its IC50 is 51 to 250 nM.

Which IC50 (rated A-D) does the source give for Nc1ccc(N2CC[C@@H](N)C2)c(NC(=O)c2csc(-c3cnn(Cc4ccccn4)c3)n2)c1 [Compound 29, N-[5-amino-2-(3(R)-amino-1-pyrrolidinyl)phenyl]-2-[1-(2-pyridinylmethyl)-1H-pyrazol-4-yl]-4-thiazolecarboxamide] here?
The IC50 was 51 to 250 nM.

Which IC50 (rated A-D) does the source give for CC(c1ccccc1)n1cc(-c2nc(C(=O)Nc3cc(N)ccc3N3CCC[C@@H](N)C3)cs2)cn1 (stereo partly drawn) [Compound 30, N-[5-amino-2-(3(R)-amino-1-piperidinyl)phenyl]-2-[1-(1-phenylethyl)-1H-pyrazol-4-yl]-4-thiazolecarboxamide] here?
The IC50 was 51 to 250 nM.
